The structures appear in SMILES notation.

For assay [1], the system named is hematopoietic stem and progenitor cells. The assay is described as follows: Phenotypic HSCs, HSPCs and myeloid progenitors in blood, spleen and bone marrow by flow cytometry. The class given is in vivo, C57BL/6 mice. The procedure:
Additional HIF-α potentiating agents in the form of PHD inhibitors were tested for their ability to enhance mobilization induced by G-CSF. Compound A, Compound B or Compound C, were tested in male, 7 weeks-old C57BL/6 mice. Mice were injected twice daily sub-cutaneously with rhuG-CSF at a dose of 125 μg/kg per injection for four days. Mice were gavaged with 20 mg/kg Compound A, Compound B, Compound C or vehicle control once daily for three days beginning on day 1 of the experiment.
At the end of treatment, blood was harvested by cardiac puncture, mice were sacrificed by cervical dislocation and spleens harvested. Femurs were removed, cleaned and the bone marrow was flushed with 1 mL PBS+10% newborn calf serum (NCS).
The number of phenotypic hematopoietic stem and progenitor cells remaining in the bone marrow following treatment was measured by flow cytometry using antibodies specific for lineage markers (CD3, CD5, CD45R/B220, F4/80, Gr1, CD41, Ter119), Sca-1, Kit, CD48 and CD150. Similarly, the number of phenotypic hematopoietic stem cells mobilized into the blood and spleen were measured. Colony assays were also performed on blood and spleen to determine the number of colony forming cells per mL of blood and per spleen. All results are presented as mean f standard deviation with n=6 per groups. Levels of significance for differences were calculated using the Student's t-test.
All procedures were approved by the animal experimentation ethics committee of the University of Queensland. All experiments were performed on nine to twelve-week old C57BL/6 male mice or genetically modified mice back-crossed at least 10 times into C57BL/6. Recombinant human G-CSF (Amgen, Thousand Oaks, Calif.) was injected twice daily subcutaneously at 125 μg/kg per injection for up to 4 consecutive days. Plerixafor (AMD3100 octohydrochloride, Tocris Bioscience, Bristol, UK) was injected intraperitoneally as a single 16 mg/kg dose corresponding to 10 mg/kg of AMD3100 base. Tissues were harvested 1 h after Plerixafor administration. […] Compounds H and J were administered at 60 mg/kg and Compound K was administered at 100 mg/kg. Control mice were injected with an equivalent volume of saline. At specified time-points, mice were anesthetized with isoflurane before cardiac puncture to harvest blood. Mice were then euthanized by cervical dislocation and BM and bones harvested.
Following flushing with PBS plus 2% NCS, enriched central BM cells were pelleted at 370×g for 5 minutes at 4° C. and resuspended in CD16/CD32 hybridoma 2.4G2 supernatant to block IgGFc receptors. HSCs were stained with the biotinylated lineage antibody cocktail (CD3, CD5, B220, CD11b, Gr-1, Ter119) and biotinylated CD41 together with streptavidin (SAV)-Pacific Blue, anti-Sca-1-PECY7, anti-KIT-APC, CD48-FITC and CD150-PE as previously described (17). Data were acquired on a CyAn (Dako Cytomation) flow cytometer and analyzed following compensation with single color controls using FlowJo software (Tree Star, Ashland, Oreg.).

A further assay deals with HIF-1α protein. In words: Western blot of bone marrow cell lysates for HIF-1α stabilization in treated mice. The class given is in vivo, C57Bl/6 mice. The settings on record: FIG. 1A. The source says:
FIGS. 1A, 1B, 1C, and 1D are graphical representations showing the effect of Compound X and G-CSF on HIF-1α protein and CFC mobilization. (1A) Western blot analysis of bone marrow (BM) cell lysates from mice treated with saline (Saline), with Compound X for 3 days (X3), with G-CSF for 2 days (G2) or with both Compound X and G-CSF (G2X3) for presence of HIF-1α and β-actin. Each lane represents a different mouse. […] (1D) Time-course numbers of CFC per mL blood or per spleen for mice treated with Plerixafor with or without Compound X. Mice were treated with Plerixafor for 1 hour (P1) together with Compound X for 1, 2, 3 or 4 days (P1X1-P1X4). Data are mean±SD of 6 mice per condition. * p<0.05; ** p<0.01; *** p<0.001.
To evaluate whether pharmacological stabilization of HIF-1α protein would enhance HSC mobilization in response to G-CSF, C57Bl/6 mice were treated with recombinant human G-CSF (rhuG-CSF) twice daily for 1-3 days together with a PHD inhibitor, Compound X, daily for 3 days. […] Mobilization of colony-forming cells (CFCs) to the blood and spleen were measured (FIG. 1B). […] To assess the optimum duration of Compound X treatment, Compound X was administered for 1-4 days and G-CSF for the last 2 days before tissue sampling (FIG. 1C).
All procedures were approved by the animal experimentation ethics committee of the University of Queensland. […]
(In general: In western blotting, separated proteins are transferred to a membrane and probed.)

Setting [2] is: Compound X added to 2 days G-CSF plus Plerixafor, P<0.01.
The mark [3] stands for this setting: G-CSF 2 days together with Compound X, p<0.005.

Turning to `O=C(O)CNC(=O)c1ncc2cc(Sc3ccccc3)ccc2c1O` [Compound X, [(4-Hydroxy-7-phenylsulfanyl-isoquinoline-3-carbonyl)-amino]-acetic acid], in assay [1] (setting [2]), the “boost of mobilization of HSPCs in the blood” value is 2.5 fold, the “boost of mobilization of HSPCs in the spleen” value is 4 fold and the “boost of mobilization of phenotypic HSCs” value was 3 fold. In assay [1] (Compound X added to 4 days G-CSF and Plerixafor, P<0.001), the “number of phenotypic HSCs and HSPCs in the blood” value was “dramatically increased”. Also, in assay [1] (setting [3]), the “number of Lin−Sca1+Kit+ HSPCs in spleen versus G-CSF alone” value is “tripled” and the “number of Lin−Sca1+Kit+ HSPCs in the blood versus G-CSF alone” value is listed as “doubled”. Further, in assay [1] (G-CSF 2 days together with Compound X, p<0.005, FIG. 2C-D), the “increase in number of phenotypic HSCs versus G-CSF alone” value is given as 3 fold. Also, the “stabilization of HIF-1α protein in bone marrow leukocytes” value with HIF-1α protein (Compound X daily for 3 days) was “stabilization of HIF-1α protein was demonstrated”. In the assay with HIF-1α protein (Compound X in combination with G-CSF), the “stabilization of HIF-1α protein compared to G-CSF alone” value was “significantly increased”.
